Measured values taken from US8222440B2, “Compounds and methods for the treatment of cancer” (The Texas A&M University System, priority 2006, dated 2012).

How the values were obtained:
HL-60 leukemia cells = experiment: Cytotoxicity assay: proliferation of HL-60 cells by 3H-thymidine uptake; format: cell-based; conditions: Homo sapiens, doxorubicin positive control at 1 μM on the plate of the test compound, read-out: % Inhibition of DOX (1 μM)
mice = conditions: intraperitoneal administration (route stated for arsenic trioxide); cited from earlier work

Molecule	inhibition at 1 µM (HL-60 leukemia cells)	LD50 (a dose at which 50% of animals die due to acute toxicity) (mice)
COc1cccc2c1C(=O)c1c(O)c3c(c(O)c1C2=O)C[C@@](O)(C(=O)CO)C[C@@H]3O[C@H]1C[C@H](N)[C@H](O)[C@H](C)O1 [DOX, doxorubicin]	100%	–
arsenic trioxide	–	10 mg/kg
